Measurements: patent US11952363B2, “Piperazine compounds for the treatment of autoimmune disease” (Hoffmann-La Roche Inc., priority 2018, dated 2024)

Columns and labels:
[1] = target: T1, hERG (Homo sapiens, UniProt Q12809); experiment: hERG channel inhibition assay (patch-clamp, CHO hERG cells); format: cell-based; conditions: for IC50 / IC20: CHO hERG cells, whole-cell patch-clamp; for IC20: human, CHO cells stably expressing hERG; for hERG IC20/TLR7 IC50 / hERG IC20/TLR8 IC50 / hERG IC20/TLR9 IC50: safety ratio, >30 suggests sufficient window
T1 construct: expressed in transfected cells
Description: The hERG K^+ channels were cloned in humans and stably expressed in a CHO (Chinese hamster ovary) cell line. CHOhERG cells were used for patch-clamp (voltage-clamp, whole-cell) experiments. Cells were stimulated by a voltage pattern to activate hERG channels and conduct I KhERG currents (rapid delayed outward rectifier potassium current of the hERG channel). After the cells were stabilized for a few minutes, the amplitude and kinetics of I KhERG were recorded at a stimulation frequency of 0.1 Hz (6 bpm). Thereafter, the test compound was added to the preparation at increasing concentrations. For each concentration, an attempt was made to reach a steady-state effect, usually, this was achieved within 3-10 min at which time the next highest concentration was applied. The amplitude and kinetics of IKhERG are recorded in each concentration of the drug which were compared to the control values (taken as 100%). […]

[2] = target: T2, human TLR8 (Homo sapiens, UniProt Q9NR97); experiment: HEK293-Blue-hTLR-8 cells assay (SEAP reporter, R848 stimulation); format: cell-based; conditions: HEK293-Blue-hTLR8 cells, R848 ligand, 20 hrs incubation; read-out: HEK/hTLR8 IC50
T2 sequence (Q9NR97 27-1041): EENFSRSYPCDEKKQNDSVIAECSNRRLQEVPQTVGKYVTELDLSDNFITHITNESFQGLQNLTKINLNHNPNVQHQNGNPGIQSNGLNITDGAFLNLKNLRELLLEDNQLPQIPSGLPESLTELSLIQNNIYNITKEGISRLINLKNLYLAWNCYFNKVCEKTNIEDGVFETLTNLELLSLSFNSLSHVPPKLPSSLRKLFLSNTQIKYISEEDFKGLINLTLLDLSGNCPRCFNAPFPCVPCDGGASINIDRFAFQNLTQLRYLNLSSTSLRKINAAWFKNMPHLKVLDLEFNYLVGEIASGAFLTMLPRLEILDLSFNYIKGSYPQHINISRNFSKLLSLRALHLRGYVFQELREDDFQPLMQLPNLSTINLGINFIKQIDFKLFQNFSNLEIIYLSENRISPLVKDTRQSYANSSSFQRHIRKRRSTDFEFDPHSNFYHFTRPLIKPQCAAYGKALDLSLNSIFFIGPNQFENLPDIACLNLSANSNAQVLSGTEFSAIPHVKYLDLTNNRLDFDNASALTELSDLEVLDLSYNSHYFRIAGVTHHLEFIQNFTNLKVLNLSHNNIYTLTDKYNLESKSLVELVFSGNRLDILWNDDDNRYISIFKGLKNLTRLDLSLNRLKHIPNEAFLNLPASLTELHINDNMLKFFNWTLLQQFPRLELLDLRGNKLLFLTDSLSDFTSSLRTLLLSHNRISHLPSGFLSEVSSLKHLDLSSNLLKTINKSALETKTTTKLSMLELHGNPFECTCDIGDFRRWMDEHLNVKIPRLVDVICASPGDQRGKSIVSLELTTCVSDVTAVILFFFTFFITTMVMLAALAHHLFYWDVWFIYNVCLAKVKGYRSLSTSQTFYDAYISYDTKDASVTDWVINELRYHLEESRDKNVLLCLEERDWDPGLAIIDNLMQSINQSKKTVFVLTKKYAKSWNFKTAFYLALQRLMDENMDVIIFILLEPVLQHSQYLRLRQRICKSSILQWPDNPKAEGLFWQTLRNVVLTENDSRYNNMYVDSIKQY
Description: The following tests were carried out in order to determine the activity of the compounds of formula (I) in HEK293-Blue-hTLR-7/8/9 cells assay.
A stable HEK293-Blue-hTLR-8 cell line was purchased from InvivoGen (Cat.#: hkb-htlr8, San Diego, California, USA). These cells were originally designed for studying the stimulation of human TLR8 by monitoring the activation of NF-κB. A SEAP (secreted embryonic alkaline phosphatase) reporter gene was placed under the control of the IFN-β minimal promoter fused to five NF-κB and AP-1-binding sites. The SEAP was induced by activating NF-κB and. AP-1 via stimulating HEK-Blue hTLR8 cells with TLR8 ligands. Therefore the reporter expression was declined by TLR8 antagonist under the stimulation of a ligand, such as R848, for incubation of 20 hrs. The cell culture supernatant SEAP reporter activity was determined using QUANTI-Blue™ kit (Cat.#: rep-qb1, Invivogen, San Diego, Ca, USA) at a wavelength of 640 nm, a detection medium that tunas purple or blue in the presence of alkaline phosphatase.
HEK293-Blue-hTLR8 cells were incubated at a density of 250,000˜450,000 cells/mL in a volume of 170 μL in a 96-well plate in Dulbecco's Modified Eagle's medium (DMEM) containing 4.5 g/L glucose, 50 U/mL penicillin, […], […], 2 mM L-glutamine, 10% (v/v) heat-inactivated fetal bovine serum with addition of 20 μL test compound in a serial dilution in the presence of final DMSO at 1% and 10 μL of 60 uM R848 in above DMEM, perform incubation under 37° C. in a CO2 incubator for 20 hrs. Then 20 μL of the supernatant from each well was incubated with […] Quanti-blue substrate solution at 37° C. for 2 hrs and the absorbance was read at 620-655 nm using a spectrophotometer. The signalling pathway that TLR8 activation leads to downstream NF-κB activation has been widely accepted, and therefore similar reporter assay was modified for evaluating TLR8 antagonist.

T1 sequence (Q12809 whole entry): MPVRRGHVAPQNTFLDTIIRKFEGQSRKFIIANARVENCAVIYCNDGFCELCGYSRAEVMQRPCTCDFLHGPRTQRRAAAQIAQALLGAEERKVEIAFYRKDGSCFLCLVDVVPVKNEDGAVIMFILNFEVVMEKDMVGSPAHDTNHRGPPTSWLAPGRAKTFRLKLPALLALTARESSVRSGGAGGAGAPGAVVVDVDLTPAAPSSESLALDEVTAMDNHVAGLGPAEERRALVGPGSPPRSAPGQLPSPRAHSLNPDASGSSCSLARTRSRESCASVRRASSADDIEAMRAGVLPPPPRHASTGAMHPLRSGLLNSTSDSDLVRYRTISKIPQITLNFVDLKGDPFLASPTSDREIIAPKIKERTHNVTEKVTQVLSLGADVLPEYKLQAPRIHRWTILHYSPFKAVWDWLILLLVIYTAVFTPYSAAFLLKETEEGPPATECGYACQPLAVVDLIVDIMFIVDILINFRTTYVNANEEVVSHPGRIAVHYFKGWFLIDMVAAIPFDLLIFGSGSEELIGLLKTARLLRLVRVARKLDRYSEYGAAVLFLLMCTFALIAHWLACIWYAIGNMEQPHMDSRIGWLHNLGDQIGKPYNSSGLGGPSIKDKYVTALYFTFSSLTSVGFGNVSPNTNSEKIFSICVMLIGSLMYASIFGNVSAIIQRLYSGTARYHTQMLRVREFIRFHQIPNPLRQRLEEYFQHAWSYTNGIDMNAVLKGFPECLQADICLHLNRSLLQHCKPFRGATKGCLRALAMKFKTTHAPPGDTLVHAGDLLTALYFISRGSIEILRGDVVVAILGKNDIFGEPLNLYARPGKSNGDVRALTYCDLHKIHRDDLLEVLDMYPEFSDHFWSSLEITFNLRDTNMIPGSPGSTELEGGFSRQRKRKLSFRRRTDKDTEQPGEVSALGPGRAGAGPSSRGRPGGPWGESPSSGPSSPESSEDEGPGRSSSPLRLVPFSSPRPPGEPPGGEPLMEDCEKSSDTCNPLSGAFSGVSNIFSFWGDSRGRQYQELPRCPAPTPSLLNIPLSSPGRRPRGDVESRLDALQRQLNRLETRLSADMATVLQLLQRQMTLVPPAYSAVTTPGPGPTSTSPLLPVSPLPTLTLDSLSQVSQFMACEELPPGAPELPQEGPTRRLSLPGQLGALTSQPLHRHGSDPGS

IC50 [2] [nM] | SMILES | IC50 [1] [nM] | IC20 [1] [nM] | hERG IC20/TLR7 IC50 [1] | hERG IC20/TLR8 IC50 [1] | hERG IC20/TLR9 IC50 [1]
19 | C[C@@H]1CN(c2ccc(C#N)c3ncccc23)C[C@H](C)N1Cc1ncc(N2CCNCC2)cn1 [Example 4, 5-[(3S,5R)-3,5-Dimethyl-4-[(5-piperazin-1-ylpyrimidin-2-yl)methyl]piperazin-1-yl]quinoline-8-carbonitrile] | > 20000 | 6300 | 384 | 355 | 45
58 | CC1CN(c2ccc(C#N)c3ncccc23)CCN1CC(=O)Nc1ccc(N2CCNCC2)cc1 (stereo not shown) [Example 17, 2-[4-(8-Cyano-5-quinolyl)-2-methyl-piperazin-1-yl]-N-(4-piperazin-1-ylpheny)acetamide] | – | – | – | – | –
93 | CC1CN(c2ccc(C#N)c3ncccc23)CCN1CC(=O)N1CCC(C2CCN(C)CC2)CC1 (stereo not shown) [Example 19, 5-[3-methyl-4-[2-[4-(1-methyl-4-piperidyl)-1-piperidyl]-2-oxo-ethyl]piperazin-1-yl]quinoline-8-carbonitrile] | – | – | – | – | –
53 | C[C@@H]1CN(c2ccc(C#N)c3ncccc23)C[C@H](C)N1Cc1ncc(N2CCN(C(=O)CN(C)C)CC2)cn1 [Example 6, 5-[(3S,5R)-4-[[5-[4-[2-(Dimethylamino)acetyl]piperazin-1-yl]pyrimidin-2-yl]methyl]-3,5-dimethyl-piperazin-1-yl]quinoline-8-carbonitrile] | – | – | – | – | –
32 | C[C@@H]1CN(c2ccc(C#N)c3ncccc23)C[C@@H](C)N1Cc1ccc(N2CCNCC2)cc1 [Example 2] | – | – | – | – | –
22 | C[C@@H]1CN(c2ccc(C#N)c3ncccc23)C[C@H](C)N1Cc1ccc(N[C@@H]2CNC[C@@H]2F)cn1 [Example 9, 5-[(3R,5S)-3,5-Dimethyl-4-[[5-[[(3R,4S)-4-fluoropyrrolidin-3-yl]amino]-2-pyridyl]methyl]piperazin-1-yl]quinoline-8-carbonitrile] | – | – | – | – | –
19 | C[C@@H]1CN(c2ccc(C#N)c3ncccc23)C[C@H](C)N1Cc1ccc(N2CCN(C)CC2)cn1 [Example 7, 5-[(3S,5R)-3,5-dimethyl-4-[[5-(4-methylpiperazin-1-yl)-2-pyridyl]methyl]piperazin-1-yl]quinoline-8-carbonitrile] | – | – | – | – | –
15 | C[C@@H]1CN(c2ccc(C#N)c3ncccc23)C[C@H](C)N1Cc1ccc(N2CCNCC2)cn1 [Example 5, 5-[(3S,5R)-3,5-Dimethyl-4-[(5-piperazin-1-yl-2-pyridyl)methyl]piperazin-1-yl]quinoline-8-carbonitrile] | > 20000 | > 10000 | >833 | >666 | >119
52 | C[C@@H]1CN(c2ccc(C#N)c3ncccc23)C[C@H](C)N1Cc1ccc(N2CCN(C(=O)C3CCCN3)CC2)cn1 (stereo partly drawn) [Example 10, 5-[(3R,5S)-3,5-Dimethyl-4-[[5-[4-(pyrrolidine-2-carbonyl)piperazin-1-yl]-2-pyridyl]methyl]piperazin-1-yl]quinoline-8-carbonitrile] | > 20000 | > 10000 | >145 | >197 | >242
46 | C[C@@H]1CN(c2ccc(C#N)c3ncccc23)C[C@H](C)N1CC(=O)N1CCc2ccc(N3CCNCC3)cc2C1 [Example 15, 5-[(3R,5S)-3,5-dimethyl-4-[2-pxp-2-(7-piperazin-1-yl-3,4-dihydro-1H-isoquinolin-2-yl)ethyl]piperazin-1-yl]quinoline-8-carbonitrile] | – | – | – | – | –
16 | C[C@@H]1CN(c2ccc(C#N)c3ncccc23)C[C@H](C)N1Cc1ccc(N2CCNCC2)cc1 [Example 1, 5-[(3R,5S)-3,5-Dimethyl-4-[(4-piperazin-1-ylphenyl)methyl]piperazin-1-yl]quinoline-8-carbonitrile] | – | – | – | – | –
21 | C[C@@H]1CN(c2ccc(C#N)c3ncccc23)C[C@H](C)N1CC(=O)N1CCc2nc(N3CCNCC3)ccc2C1 [Example 13, 5-[(3R,5S)-3,5-Dimethyl-4-[2-oxo-2-(2-piperazin-1-yl-7,8-dihydro-5H-1,6-naphthyridin-6-yl)ethyl]piperazin-1-yl]quinoline-8-carbonitrile] | – | – | – | – | –
40 | CC1CN(c2ccc(C#N)c3ncccc23)CCN1CC(=O)Nc1ccc2c(c1)CCNC2 (stereo not shown) [Example 18, 2-[4-(8-Cyano-5-quinolyl)-2-methyl-piperazin-1yl]-N-(1,2,3,4-tetrahydroisoquinolin-6-yl)acetamide] | – | – | – | – | –
31 | C[C@@H]1CN(c2ccc(C#N)c3ncccc23)C[C@H](C)N1Cc1ccc(N2CCNCC2)nc1 [Example 3, 5-[(3R,5S)-3,5-Dimethyl-4-[(6-piperazin-1-yl-3-pyridyl)methyl]piperazin-1-yl]quinoline-8-carbonitrile] | > 20000 | 7400 | 383 | 240 | 79
33 | C[C@@H]1CN(c2ccc(C#N)c3ncccc23)C[C@H](C)N1Cc1ccc(N2CCNCC2CO)cc1 (stereo partly drawn) [Example 12, 5-[(3R,5S)-4-[[4-[2-(Hydroxymethyl)piperazin-1-yl]phenyl]methyl]-3,5-dimethyl-piperazin-1-yl]quinoline-8-carbonitrile] | – | – | – | – | –
20 | C[C@@H]1CN(c2ccc(C#N)c3ncccc23)C[C@H](C)N1CC(=O)N1CCc2cc(N3CCNCC3)ccc2C1 [Example 14, 5-[(3R,5S)-3,5-Dimethyl-4-[2-oxo-2-(6-piperazin-1-yl-3,4-dihyrdo-1H-isoquinolin-2-yl)ethyl]piperazin-1-yl]quinoline-8-carbonitrile] | – | – | – | – | –
36 | C[C@@H]1CN(c2ccc(C#N)c3ncccc23)C[C@H](C)N1Cc1ccc(N2CC3CNCC(C2)O3)cn1 [Example 8, 5-[(3S,5R)-3,5-Dimethyl-4-[[5-(9-oxa-3,7-diazabicyclo[3.3.1]nonan-3-yl)-2-pyridyl]methyl]piperazin-1-yl]quinoline-8-carbonitrile] | – | – | – | – | –
55 | C[C@@H]1CN(c2ccc(C#N)c3ncccc23)C[C@H](C)N1CC(=O)N1Cc2ccc(N3CCNCC3)cc2C1 [Example 16, 5-[(3R,5S)-3,5-Dimethyl-4-[2-oxo-2-(5-piperazin-1-ylisoindolin-2-yl)ethyl]piperazin-1-yl]quinoline-8-carbonitrile] | > 20000 | > 10000 | >289 | >182 | >134
